Where two headings read alike, the source gives them in different places. Positions of bridges follow the written chain, without caps; N, C: chain ends. Non-standard residues stand in square brackets, D forms with d. No end group written: not given here. *: point of attachment. Biotin = O=C1N[C@H]2[C@H](CS[C@H]2CCCCC(=O)*)N1; PEG4 = NCCOCCOCCOCCOCCC(=O)O; Nle = CCCC[C@H](N)C(=O)O; Aib = CC(C)(N)C(=O)O
Experiments:
SARS-CoV-2 Spike protein = SARS-CoV-2 Spike protein (Severe acute respiratory syndrome coronavirus 2, UniProt P0DTC2); test: Ternary binding of SARS-CoV-2 Spike protein (293T cells expressing Spike-GFP, IgG-AF647, flow cytometry); type: cell-based; conditions: IgG-AF647 10 μg/ml, repeat values/batches listed separately
[1] = target: T1, SARS-CoV-2 Spike Glycoprotein RBD protein (Severe acute respiratory syndrome coronavirus 2, UniProt P0DTC2); test: Binding of biotinylated ligands to SARS-CoV-2 Spike Glycoprotein RBD protein by ELISA
T1 construct: SARS-CoV-2 (COVID-19) S Protein RBD, His Tag; purchased Acro Biosystems SPD-C52H3
Description: Materials. The binding affinity of biotinylated ligands to SARS-CoV-2 Spike Glycoprotein RBD protein was determined by ELISA. The binding assay was performed using the following steps: (1) assay plates (PE B&W Isoplate 96-well Flat Bottom, High Bindi-g - Perkin Elmer 6005580) were coated with 100 ul Anti-6× His tag antibody (Anti-6× His tag Antibody; Abcam ab15149, Mouse Monoclonal; Cambridge, UK) at 5 μg/ml in PBS, incubate 1 hour at 37° C. without shaking. The plates were washed (each wash step of this assay includes four 1-minute washes with 200 ul phosphate-buffered saline-0.05% (w/v) Tween® 20 detergent (PBST)). (2) Plates were blocked with 200 ul PBST-5% BSA (PBSTB; American Bio AB01088-00100; Canton, MA), for an hour at room temperature on a plate shaker (400 rpm). The plates were washed. […] The plates were washed. (4) Ligands were added, 100 ul at a concentration range of 0.1 mM to 100 nM in PBSTB, and incubated for 1 hour at room temperature on a plate shaker (200 RPM). The plates were washed. (5) NeutrAvidin™-HRP (Invitrogen 31030; Waltham, MA) is added, 100 ul at a dilution of 1:20,000 in PBSTB, and incubated for 1 hour at room temperature on a plate shaker (200 RPM). The plates were washed. (6) SuperSignal ELISA Pico Chemiluminescent Substrate (Thermo Scientific 37069; Waltham, MA) was added and incubated for 5 minutes at room temperature on a plate shaker (200 RPM).

[2] = target: T2, SARS-CoV-2 Spike A (wild-type) (Severe acute respiratory syndrome coronavirus 2, UniProt P0DTC2); test: MSD ACE2 competition assay (inhibition of Spike binding with ACE2, ECL), A (wild-type); conditions: IC50 Wild Type, Wild Type Spike
T2 construct: purchased Meso Scale Diagnostics, LLC V-PLEX SARS-CoV-2 Panel 13 (ACE2) Kit / Panel 23 (ACE2) Kit

[3] = tested on: Spike RBD coated magnetic beads / RAW 264.7 macrophages; test: Antibody-dependent cellular phagocytosis (ADCP), RAW 264.7 macrophages and Spike RBD coated magnetic beads, flow cytometry; type: cell-based; conditions: 37° C., 2 hours, read-out: SARS-COV-2 ADCP EC50
Description: The ability of the compounds to mediate antibody-dependent cellular phagocytosis (ADCP) was assessed using RAW 264.7 macrophages and Spike RBD coated magnetic beads (https://www.acrobiosystems.com/P3194-SARS-CoV-2-Spike-RBD-coupled-Magnetic-Beads.html). Spike RBD coated magnetic beads (3 ul per well) were added to each well of a round bottom 96-well plates. RAW264.7 cells (50,000 cells per well) were added to the beads. Next, the compounds were administered to predetermined final concentrations. The cell-bead mixtures were incubated at 37° C. for 2 hours. The mixtures were then analyzed by flow cytometry.

[4] = ELISA, biotinylated ligands, Spike RBD, read-out: ELISA SARS-CoV-2 Spike RBD Protein Binding EC50
[5] = […], read-out: SARS-CoV-2 Ternary binding EC50
[6] = 293T cells expressing Spike-GFP, read-out: SARS-CoV-2 Ternary binding EC50

Compound	EC50 (SARS-CoV-2 Spike protein; SARS-CoV-2 Ternary binding EC50, 293T cells expressing Spike-GFP) [pM]	EC50 [1] [pM]	EC50 [1, 4] [pM]	EC50 (SARS-CoV-2 Spike protein; [5]) [pM]	IC50 [2] [pM]	EC50 [3] [pM]	EC50 (SARS-CoV-2 Spike protein; [6]) [pM]
CC[C@H](C)[C@H](NC(=O)[C@H](CC(C)C)NC(=O)[C@H](CC(=O)O)NC(=O)[C@H](CO)NC(=O)[C@@H](NC(=O)[C@H](CCCNC(=N)N)NC(=O)[C@H](CCSC)NC(=O)[C@H](CO)NC(=O)[C@H](C)NC(=O)[C@@H]1CCCN1C(=O)[C@H](C)NC(=O)[C@H](Cc1c[nH]cn1)NC(=O)CNC(=O)[C@H](CC(C)C)NC(=O)[C@H](CCC(=O)O)NC(=O)[C@H](CC(=O)O)NC(=O)[C@H](CC(C)C)NC(=O)[C@H](CC(C)C)NC(=O)[C@H](CCCNC(=N)N)NC(=O)[C@H](CCSC)NC(=O)[C@@H](NC(=O)[C@H](CCC(=O)O)NC(=O)[C@H](Cc1ccc(O)cc1)NC(=O)[C@@H](NC(=O)[C@H](CCCCN)NC(=O)[C@H](CCC(N)=O)NC(=O)[C@H](CC(C)C)NC(=O)[C@@H](NC(=O)[C@H](Cc1c[nH]c2ccccc12)NC(=O)[C@H](CCC(=O)O)NC(=O)[C@H](CCCCN)NC(=O)[C@H](CC(=O)O)NC(=O)CCOCCOCCOCCOCCNC(=O)CCCC[C@@H]1SC[C@@H]2NC(=O)N[C@@H]21)[C@@H](C)CC)[C@@H](C)CC)[C@@H](C)CC)C(C)C)C(=O)N[C@@H](Cc1ccc(O)cc1)C(=O)N[C@@H](CCC(=O)O)C(=O)N[C@@H](Cc1ccccc1)C(=O)N[C@@H](CCSC)C(=O)N[C@@H](CCCCN)C(=O)N[C@@H](CCCCN)C(=O)NCC(=O)N[C@@H](CC(=O)O)C(=O)N[C@@H](CCC(=O)O)C(=O)N[C@@H](CCCNC(=N)N)C(=O)N[C@@H](CC(C)C)C(=O)N[C@@H](CC(C)C)C(=O)N[C@@H](CCC(=O)O)C(=O)N[C@@H](CCC(=O)O)C(=O)N[C@@H](C)C(=O)N[C@@H](CCC(=O)O)C(=O)N[C@@H](CCCNC(=N)N)C(=O)N[C@@H](CC(C)C)C(=O)N[C@@H](CC(C)C)C(=O)N[C@@H](CCC(=O)O)C(=O)N[C@@H](CCC(=O)O)C(=O)N[C@H](C(=O)N[C@@H](CCC(=O)O)C(=O)N[C@@H](CCCNC(=N)N)C(N)=O)C(C)C [Compound 187]	70	370	–	–	–	–	–
CC[C@H](C)[C@H](NC(=O)[C@H](CC(C)C)NC(=O)[C@H](CC(=O)O)NC(=O)[C@H](CO)NC(=O)[C@@H](NC(=O)[C@H](CCCNC(=N)N)NC(=O)[C@H](CCSC)NC(=O)[C@H](CO)NC(=O)[C@H](C)NC(=O)[C@H](CCC(=O)O)NC(=O)[C@H](C)NC(=O)[C@H](Cc1c[nH]cn1)NC(=O)CNC(=O)[C@H](CC(C)C)NC(=O)[C@H](CCC(=O)O)NC(=O)[C@H](CC(=O)O)NC(=O)[C@H](CC(C)C)NC(=O)[C@H](CC(C)C)NC(=O)[C@H](CCCNC(=N)N)NC(=O)[C@H](CCSC)NC(=O)[C@@H](NC(=O)[C@H](CCC(=O)O)NC(=O)[C@H](Cc1ccc(O)cc1)NC(=O)[C@@H](NC(=O)[C@H](CCCCN)NC(=O)[C@H](CCC(N)=O)NC(=O)[C@H](CC(C)C)NC(=O)[C@@H](NC(=O)[C@H](Cc1c[nH]c2ccccc12)NC(=O)[C@H](CCC(=O)O)NC(=O)[C@H](CCCCN)NC(=O)[C@H](CC(=O)O)NC(=O)[C@H](CO)NC(=O)C(C)(C)NC(=O)CCOCCOCCOCCOCCNC(=O)CCCC[C@@H]1SC[C@@H]2NC(=O)N[C@@H]21)[C@@H](C)CC)[C@@H](C)CC)[C@@H](C)CC)C(C)C)C(=O)N[C@@H](Cc1ccc(O)cc1)C(=O)N[C@@H](CCC(=O)O)C(=O)N[C@@H](Cc1ccccc1)C(=O)N[C@@H](CCSC)C(=O)N[C@@H](CCCCN)C(=O)N[C@@H](CCCCN)C(=O)N[C@H](C)C(=O)O [Compound 214]	–	–	780	–	–	–	–
Ac-DKEWILQKIYEIMRLLDELGHAEASMRVSDLIYEFMKKGDERLLEEAERLLEEVEREAAAKEAAAKDCAWHLGELVWCT-NH2 (disulfide 68-78) [Compound 146]	–	–	–	20	1000	270	–
Ac-DKEWILQKIYEIMRLLDELGHAEASMRVSDLIYEFMKKGDERLLEEAERLLEEVERGGDCAWHLGELVWCT-NH2 (disulfide 60-70) [Compound 145]	–	–	–	–	970	520	40
Ac-DKEWILQKIYEIMRLLDELGHAEASMRVSDLIYEFMKKGDERLLEEAERLLEEVERGGGGDCAWHLGELVWCT-NH2 (disulfide 62-72) [Compound 144]	–	–	–	–	1170	610	30
Ac-DKEWILQKIYEIMRLLDELGHAEASMRVSDLIYEFMKKGDERLLEEAERLLEEVERGGGGGGDCAWHLGELVWCT-NH2 (disulfide 64-74) [Compound 143]	–	–	–	–	1350	750	50
Ac-DKEWILQKIYEIMRLLDELGHAEASMRVSDLIYEFMKKGDERLLEEAERLLEEVERGGGGGGGGDCAWHLGELVWCT-NH2 (disulfide 66-76) [Compound 142]	–	–	–	–	1350	600	50
Ac-DKEWILQKIYEIMRLLDELGHAEASMRVSDLIYEFMKKGDERLLEEAERLLEEVERGQAPGQAPDCAWHLGELVWCT-NH2 (disulfide 66-76) [Compound 147]	–	–	–	20	1350	430	–
Ac-DKEWILQKIYEIMRLLDELGHAEASMRVSDLIYEFMKKGDERLLEEAERLLEEVERPASPASPASPASDCAWHLGELVWCT (disulfide 70-80) [Compound 165]	–	–	–	110	830	70	–
DKEWILQKIYEIMRLLDELGHAEASMRVSDLIYEFMKKGDERLLEEAERLLEEVEREAAAKEAAAKDCAWHLGELVWCT-NH2 (disulfide 68-78) [Compound 173]	–	–	–	40	1210	350	–
DKEWILQKIYEIMRLLDELGHAEASMRVSDLIYEFMKKGDERLLEEAERLLEEVERGGDCAWHLGELVWCT-NH2 (disulfide 60-70) [Compound 172]	–	–	–	–	1050	870	20
DKEWILQKIYEIMRLLDELGHAEASMRVSDLIYEFMKKGDERLLEEAERLLEEVERGGGGDCAWHLGELVWCT-NH2 (disulfide 62-72) [Compound 171]	–	–	–	–	1250	410	10
DKEWILQKIYEIMRLLDELGHAEASMRVSDLIYEFMKKGDERLLEEAERLLEEVERGGGGGGDCAWHLGELVWCT-NH2 (disulfide 64-74) [Compound 170]	–	–	–	–	1520	950	20
DKEWILQKIYEIMRLLDELGHAEASMRVSDLIYEFMKKGDERLLEEAERLLEEVERGGGGGGGGDCAWHLGELVWCT-NH2 (disulfide 66-76) [Compound 169]	–	–	–	–	1220	530	10
DKEWILQKIYEIMRLLDELGHAEASMRVSDLIYEFMKKGDERLLEEAERLLEEVERGQAPGQAPDCAWHLGELVWCT-NH2 (disulfide 66-76) [Compound 174]	–	–	–	140	1400	44	–
{Biotin-PEG4}-[Aib]SDKEWILQKIYEI[Nle]RLLDELGHAEAS[Nle]RVSDLIY[Aib]FMK[Aib]G [Compound 220]	–	–	2550	–	–	–	–
